This note sets out measurements from PubChem BioAssay (NCI).

Some test systems named below: A549 NSCLC; 786-0 renal; K-562 leukemia; SK-MEL-5 melanoma; NCI-H23 lung; NCI-H226 lung; A498 renal; M14 melanoma; UACC-62 melanoma; SK-MEL-28 melanoma.
Common to all, as to assay: NCI-60 cell line screen, 48 h

Values joined by “and” are separate entries in the source; they are usually repeats but may differ in a detail not shown here. Equal entries are not always repeated.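 These data come from cells grown in 96-well plates and exposed to compound for 48 hours at five concentrations. GI50 is the concentration that inhibits growth by half. TGI: total growth inhibition.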

As to `CC(C)[C@H](O)C(=O)N[C@H]1Cc2ccc3c(c2)[C@]24C5=C(N=C(O5)[C@H](C(C)C)NC1=O)c1nc(Cl)c(o1)-c1c(Cl)[nH]c5cccc(c15)-c1cccc2c1N[C@H]4O3`, the GI50 with A549 NSCLC was less than 0.001 µM; in the assay with 786-0 renal, 0.00279 µM; with K-562 leukemia it was less than 0.001 µM; in the assay with SK-MEL-5 melanoma, less than 0.001 µM; in the assay on NCI-H23 lung, less than 0.001 µM; in the assay with M14 melanoma it was 0.0012 µM. The TGI with A549 NSCLC is more than 10 µM; with 786-0 renal it was 2.77 µM; with K-562 leukemia, more than 10 µM; with NCI-H23 lung it was 3.82 µM; with NCI-H226 lung, 0.0273 µM; in the assay with A498 renal it was more than 10 µM. In addition, the TGI in the assay on M14 melanoma was more than 10 µM.

As to `O=C1C(Nc2cccc(O)c2)=C(Sc2ccc(Cl)cc2)C(=O)N1Cc1ccccc1`, the GI50 is 5.38 µM with A549 NSCLC; 17.8 µM with 786-0 renal; 3.81 µM in the assay on K-562 leukemia; 10.4 µM with UACC-62 melanoma; 8.44 µM in the assay with SK-MEL-5 melanoma; 11 µM with SK-MEL-28 melanoma. In addition, the GI50 in the assay with NCI-H23 lung is 6.77 µM; in the assay on NCI-H226 lung, 32.6 µM; in the assay on A498 renal, 10.3 µM; in the assay on M14 melanoma, 6.94 µM. For the same molecule, the TGI in the assay with A549 NSCLC was found to be 35.9 µM; in the assay with 786-0 renal, 50 µM; with K-562 leukemia it was 29.6 µM; in the assay on UACC-62 melanoma, 27.2 µM; with SK-MEL-5 melanoma, 24.7 µM; with SK-MEL-28 melanoma, 40.9 µM. Further, the TGI is 37.5 µM with NCI-H23 lung, more than 100 µM in the assay with NCI-H226 lung, 25.6 µM in the assay with A498 renal and 38.5 µM in the assay with M14 melanoma.

With `CCCCCCCCCCC(CN(CC)CC)C(O)c1ccccc1` (centres undefined), the GI50 is 2.49 µM with A549 NSCLC; 1.67 µM with 786-0 renal; 2.03 µM with K-562 leukemia; 1.78 µM with UACC-62 melanoma; 1.48 µM in the assay with SK-MEL-5 melanoma; 1.7 µM in the assay with SK-MEL-28 melanoma. The GI50 is 1.93 µM in the assay on NCI-H23 lung, 2.03 µM in the assay on NCI-H226 lung, 3.68 µM in the assay with A498 renal and 1.74 µM in the assay on M14 melanoma. For the same molecule, the TGI in the assay on A549 NSCLC worked out at 5.41 µM; with 786-0 renal, 3.15 µM; in the assay on K-562 leukemia, 4.67 µM; in the assay with UACC-62 melanoma it was 3.46 µM; in the assay with SK-MEL-5 melanoma it was 2.88 µM; with SK-MEL-28 melanoma, 3.16 µM. Further, the TGI in the assay with NCI-H23 lung amounted to 3.74 µM; in the assay on NCI-H226 lung, 4.66 µM; with A498 renal it was 14.4 µM; in the assay on M14 melanoma it was 3.4 µM.

In the case of `CC(C)(C)[Si](Nc1ccccc1)(c1ccccc1)c1ccccc1`, the TGI in the assay with A549 NSCLC was determined as 28.2 µM; in the assay with 786-0 renal it was 28.4 µM; in the assay on K-562 leukemia, 25.1 µM; in the assay with UACC-62 melanoma, 22.7 µM; in the assay with SK-MEL-5 melanoma, 34.2 µM; in the assay on SK-MEL-28 melanoma, 32 µM. Further, the TGI with NCI-H23 lung worked out at 32.8 µM; in the assay with NCI-H226 lung, 29.8 µM; with A498 renal, 31.3 µM; with M14 melanoma, 27.5 µM.

On to `NC(N)=N/N=C(/c1ccccc1)c1ccc(O)cc1O`, for which the TGI in the assay on A549 NSCLC was more than 100 µM; in the assay with 786-0 renal, 96.4 µM; with K-562 leukemia, more than 100 µM; with UACC-62 melanoma, more than 100 µM; with SK-MEL-5 melanoma, 65.8 µM; in the assay with SK-MEL-28 melanoma, more than 100 µM. The TGI with NCI-H23 lung was more than 100 µM; in the assay on NCI-H226 lung, more than 100 µM; in the assay on A498 renal, 61.7 µM; in the assay with M14 melanoma it was 58.7 µM.

With `C=C1C(=O)O[C@H]2[C@H]1CC/C(COC(=O)NCc1cccc(OC)c1)=C\CC[C@@]1(C)O[C@@H]21`, the GI50 in the assay with A549 NSCLC was 3.1 µM; in the assay on 786-0 renal, 1.84 µM; in the assay on K-562 leukemia, 1.93 µM; with UACC-62 melanoma it was 1.91 µM; with SK-MEL-5 melanoma, 1.64 µM; in the assay with SK-MEL-28 melanoma it was 1.84 µM. In addition, the GI50 was 3.07 µM in the assay on NCI-H23 lung, 12.1 µM in the assay on NCI-H226 lung, 10.5 µM with A498 renal and 2.08 µM with M14 melanoma. Further, the TGI with A549 NSCLC was found to be 12.8 µM; in the assay on 786-0 renal, 3.61 µM; with K-562 leukemia, 6.79 µM; in the assay with UACC-62 melanoma, 4.24 µM; in the assay with SK-MEL-5 melanoma it was 3.2 µM; with SK-MEL-28 melanoma, 3.82 µM. Besides, the TGI in the assay with NCI-H23 lung is 10.3 µM; in the assay on NCI-H226 lung, 27.8 µM; in the assay on A498 renal, 22.4 µM; with M14 melanoma, 5.16 µM.

For the molecule `O=C(Nc1ccccc1)OCc1nc2c([nH]1)C(=O)C=CC2=O`, the TGI in the assay on A549 NSCLC was found to be 31.9 µM; with 786-0 renal it was 32.5 µM; in the assay with K-562 leukemia, 7.36 µM; in the assay with UACC-62 melanoma it was 36.9 µM; in the assay on SK-MEL-5 melanoma, 27.3 µM; with SK-MEL-28 melanoma, 30.5 µM. Besides, the TGI in the assay on NCI-H23 lung is 40 µM; in the assay on NCI-H226 lung, 33.3 µM; in the assay with A498 renal it was 30.1 µM; in the assay with M14 melanoma it was 29.8 µM.

As for `c1ccc([P+](CCC[P+](c2ccccc2)(c2ccccc2)c2ccccc2)(c2ccccc2)c2ccccc2)cc1`, the GI50 in the assay with A549 NSCLC is 14.5 µM; with K-562 leukemia it was 4.53 µM; with SK-MEL-5 melanoma it was 6.8 µM; in the assay on SK-MEL-28 melanoma, 11.2 µM; in the assay with NCI-H23 lung, 18.8 µM; in the assay on NCI-H226 lung, 32.7 µM. The GI50 is 14.6 µM in the assay with A498 renal and 27.6 µM in the assay with M14 melanoma. Also, the TGI in the assay with A549 NSCLC is more than 100 µM; in the assay on 786-0 renal, more than 100 µM; in the assay on K-562 leukemia it was more than 100 µM; with UACC-62 melanoma it was more than 100 µM; with SK-MEL-5 melanoma, 74.1 µM and 38.7 µM; in the assay on SK-MEL-28 melanoma it was more than 100 µM. The TGI in the assay on NCI-H23 lung is more than 100 µM; in the assay with NCI-H226 lung it was 93.8 µM and > 100 µM; with A498 renal, more than 100 µM; in the assay with M14 melanoma it was more than 100 µM.

`CCCCCC/C=C\CCCCCCCCCc1c(O)c(OC)cc(O)c1CN(C)C`: the TGI in the assay on A549 NSCLC was 17.1 µM; with 786-0 renal it was 3.26 µM; in the assay with K-562 leukemia, 4.49 µM; in the assay on UACC-62 melanoma it was 23.3 µM; in the assay with SK-MEL-5 melanoma, 18.6 µM; in the assay on SK-MEL-28 melanoma, 28.2 µM. For the same molecule, the TGI in the assay with NCI-H23 lung came to 23.1 µM; in the assay with NCI-H226 lung, 36.7 µM; in the assay on A498 renal, 33.4 µM; in the assay on M14 melanoma, 27.8 µM.

`C=C(C)C1CCC2(CO)C(O)CC3(C)C(CCC4C5(C)CCC(O)C(C)(C)C5CCC43C)C12` (centres undefined): the TGI with A549 NSCLC is 32.6 µM; in the assay on 786-0 renal it was more than 100 µM; in the assay with K-562 leukemia, 33.3 µM; with SK-MEL-5 melanoma, 21.3 µM; with SK-MEL-28 melanoma it was 32.5 µM; in the assay with NCI-H226 lung it was more than 100 µM. Also, the TGI in the assay with A498 renal was 31.9 µM; in the assay on M14 melanoma, more than 100 µM.
